# Data reported in US10987407B2, “Methods and compositions for treating hypoglycemic disorders” (priority 2007, dated 2021).
# “Also recorded” adds a separate entry of the source. Read-outs that look alike come from different tables or passages of the source. Marks after values point to notes of the source that are not given here.
# Assays:
# SUR-1−/− islets [1] = test: Cytosolic free Ca2+ measurement (Fura-2) in islets; format: cell-based, mouse
# Experimental: Mouse islets were isolated and cultured on poly-[…] coated glass coverslips under the same conditions as described above. The perifusion procedure and cytosolic-free Ca2+([Ca2+]i) measurement were described previously (24). In brief, the coverslip with attached islets was incubated with 15 μM Fura-2 acetoxymethylester (Molecular Probes, Eugene, Oreg.) in Krebs-Ringer bicarbonate buffer with 5 mM glucose for 35 min at 37° C. Islets were then perifused with Krebs-Ringer bicarbonate buffer with 0.25% bovine serum albumin at 37° C. at a flow rate of 2 mL/min, while various agents were applied. [Ca2+]i was measured with a dual wavelength fluorescence microscope as previously described. The effect of exendin-(9-39) on the characteristically elevated intracellular calcium concentration of SUR-1^-/- islets was studied. […] As previously reported, amino acids caused a transient further rise in intracellular calcium.
# SUR-1−/− islets [2] = test: Insulin secretion in static incubations of isolated islets; format: cell-based, mouse
# [3] = test system: subject with congenital hyperinsulinism due to a mutation in ABCC8; test: Intravenous exendin-(9-39) infusion in fasting subjects with congenital hyperinsulinism; format: in vivo, human
# Experimental: After an overnight fast, subject received an intravenous infusion of 0.9% NaCl for 60 min followed by a 6 hour intravenous infusion of exendin-(9-39) at ascending doses every 120 min (100 pmol/kg/min for 120 min, then 300 pmol/kg/min for 120 min and then 500 pmol/kg/min for 120 min). On the second day, 0.9% NaCl was infused intravenously after an overnight fast for a total of 7 hours.
# Blood samples for glucose, insulin, C-peptide, glucagon and GLP-1 were obtained at different intervals during the infusions.
# [4] = test system: wild-type littermate control mice; test: Fasting blood glucose during continuous subcutaneous exendin-(9-39) infusion in wild-type littermates; format: in vivo, mouse; conditions: 150 pmol/kg/min s.c. pump
# Excerpt: (§1) SUR-1^−/− mice were kindly provided by Dr. Mark A. Magnuson. The generation and genotyping of SUR-1^−/− mice were previously described (8). Mice are maintained in a C57Bl/6 genetic background. Twelve to eighteen week SUR-1^−/− and wild-type littermatte control mice were used in all experiments. Mice were maintained on a 12:12-h light-dark cycle and were fed a standard rodent chow diet. All procedures were approved and carried out according to the University of Pennsylvania Institutional Animal Care and Use Committee guidelines. […]
# (§2) For determination of fasting blood glucose levels mice were fasted for 12-16 hours. […] Blood glucose levels were measured using a hand-held glucose meter (FreeStyle; TheraSense, Alameda, Calif.). Insulin and glucagon were measured by ELISA (Mouse Endocrine Immunoassay Panel; Linco Research, Inc., St. Charles, Mo.).
# (§3) Twelve-18 week old male SUR-1^−/− and wildtype littermates underwent a baseline evaluation including fasting blood glucose measurements and oral glucose tolerance testing, followed by randomization to treatment with exendin-(9-39) (150 pmol/kg/min) or vehicle (0.9% NaCl, 1% BSA). Fasting blood glucose levels were determined after an overnight fast on days 3 and 7 of the infusion. In addition, oral glucose tolerance and insulin sensitivity were evaluated during treatment. […]
# SUR-1−/− mice [5] = test: Fasting blood glucose during continuous subcutaneous exendin-(9-39) infusion in SUR-1−/− mice; format: in vivo, mouse; conditions: 150 pmol/kg/min s.c. pump, day 3, mean±SEM, vehicle 63.2±4.9
# Excerpt: as §1, §2, §3
# wild-type littermates = test: Oral glucose tolerance test in wild-type littermates; format: in vivo, mouse; conditions: wild-type littermates during treatment
# Experimental: (§4) Alzet mini-osmotic pumps (model 2002; Alza, Palo Alto, Calif.) were implanted subcutaneously to deliver exendin-(9-39) (Bachem Bioscience, King of Prussia, Pa.) at a rate of 150 pmol/kg/min or vehicle (0.9% NaCl/1% BSA) for 2 weeks. For determination of fasting blood glucose levels mice were fasted for 12-16 hours. Oral glucose tolerance testing was carried after a 12-16 hour fast by administering 2 g/kg of dextrose by oral gavage (feeding needles; Popper and Sons, Inc., Hyde Park, N.Y.). For insulin tolerance testing mice received 0.5 units/kg of insulin intraperitoneally after a 4 hour fast. Blood glucose levels were measured using a hand-held glucose meter (FreeStyle; TheraSense, Alameda, Calif.). Insulin and glucagon were measured by ELISA (Mouse Endocrine Immunoassay Panel; Linco Research, Inc., St. Charles, Mo.).
# SUR-1−/− islets [6] = test: cAMP content in static incubations of isolated islets; format: cell-based, mouse
# Experimental: Islets were isolated as above, hand-picked and cultured for three days. Cultured islets were preincubated in glucose free Krebs-Ringer bicarbonate buffer for 60 min, 100 nM exendin-(9-39) was added 30 min into the preincubation period. Then, islets were exposed to different treatments for an additional 30 min in the presence of 0.1 mM isobutyl-methylzanthine (IBMX). After incubation, islets were washed 2 times by cold glucose-free Hank's buffer. cAMP was measured in islet lysates by ELISA (GE/Amersham Biosciences, Piscataway, N.J.). The effect of exendin-(9-39) on cAMP was determined in static incubations of isolated islets.
# SUR-1−/− mice [7] = test: Oral glucose tolerance test in SUR-1−/− mice; format: in vivo, mouse
# Experimental: as §4
# SUR-1−/− mice [8] = test: Fasting hormonal profile (insulin, glucagon, insulin/glucose ratio) during treatment; format: in vivo, mouse
# Experimental: as §4
# [9] = test system: SUR-1−/− and wild-type mice; test: Insulin tolerance test (insulin sensitivity); format: in vivo, mouse; conditions: any of the treatment groups; 0.5 units/kg insulin i.p.
# Experimental: as §4, with “Mo.). To determine the mechanism of action for the effect of exendin-(9-39) on fasting blood glucose levels insulin sensitivity was assessed by an insulin tolerance test.” for “Mo.).”
# SUR-1−/− islets [10] = test: Perifusion of isolated islets with amino acid ramp, insulin release; format: cell-based, mouse
# Experimental: Islets were isolated by collagenase digestion and cultured for 3 days in RPMI 1640 medium containing 10 mM glucose. The culture medium was supplemented with 10% fetal bovine serum, 2 mM glutamine, 100 units/mL penicillin, and 50 μg/mL streptomycin. Islets were incubated at 37° C. in a 5% CO2, 95% air-humidified incubator. Batches of 100 cultured mouse islets were loaded onto a nylon filter in a chamber and perifused with Krebs-Ringer bicarbonate buffer (115 mM NaCl, 24 mM NaHCO3, 5 mM KCl, 1 mM MgCl2, 2.5 mM CaCl2), 10 mM HEPES, pH 7.4) with 0.25% bovine serum albumin at a flow rate of 2 mL/min. Perifusate solutions were gassed with 95% 02, 5% CO2 and maintained at 37° C. Islets were stimulated with a ramp of amino acids. […] Insulin was measured by radioimmunoassay (Linco Research Inc., St. Charles, Mo.).
# Given the observed in vivo effects on insulin secretion but not insulin sensitivity, it was next determined whether exendin-(9-39) exerts a direct effect on SUR-1^−/− islet function. […]
# [11] = fasting HI subject, i.v. ascending doses
# [12] = among the treatment groups, during treatment
substance,measurement,setting,value
exendin-(9-39),Basal intracellular calcium,SUR-1−/− islets [1],did not impact
same,Amino acid-stimulated rise in intracellular calcium,SUR-1−/− islets [1]; amino acids 4 mM,no effect
same,Basal intracellular calcium,SUR-1−/− islets [1]; listed as Exendin-(9-39),did not affect
same,Insulin Secretion,"SUR-1−/− islets [2]; 100 nM exendin-(9-39) with 4 mM AAM, AAM alone 389±17",219±14 ng/100 islets/30 min
same,Insulin Secretion,"SUR-1−/− islets [2]; 100 nM exendin-(9-39) with 4 mM AAM, AAM alone 389±17, listed as Exendin-(9-39)",219 ± 14 ng/100 islets/30 min
same,Insulin Secretion,"SUR-1−/− islets [2]; baseline, 100 nM exendin-(9-39), baseline without 221±22",126±12 ng/100 islets/30 min
same,Insulin Secretion,"SUR-1−/− islets [2]; baseline, 100 nM exendin-(9-39), baseline without 221±22, listed as Exendin-(9-39)",126 ± 12 ^a ng/100 islets/30 min
same,Fasting blood glucose levels,[3]; another 2 human subjects,elevation
same,Blood glucose levels during infusion,"[3]; fasting HI subject, i.v. 100, 300, 500 pmol/kg/min each 120 min, saline infusion dropped below 60",above 80 mg/dL
same,Fasting hypoglycemia,[3]; [11],prevented
same,Plasma insulin,[3]; [11],suppressed
same,Fasting blood glucose levels vs vehicle-treated wild type controls,[4],not different
same,Fasting blood glucose levels,SUR-1−/− mice [5],82.2 ± 6.3 mg/dL
same,"Glucose tolerance (oral, 2 g/kg)",wild-type littermates,no effect
same,cAMP Content,SUR-1−/− islets [6]; 100 nM exendin-(9-39) with 4 mM amino acid mixture (AAM),20.9±4.4 pmol/100 islets
same,cAMP Content,"SUR-1−/− islets [6]; 100 nM exendin-(9-39) with 4 mM amino acid mixture (AAM), listed as Exendin-(9-39)",52.5 ± 9.4 ^c pmol/100 islets
same,cAMP Content,"SUR-1−/− islets [6]; basal, 100 nM exendin-(9-39), no exogenous GLP-1, baseline 40.1±4.2",20.5±2.3 pmol/100 islets
same,cAMP Content,"SUR-1−/− islets [6]; basal, 100 nM exendin-(9-39), no exogenous GLP-1, baseline 40.1±4.2, listed as Exendin-(9-39)",20.5 ± 2.3 ^a pmol/100 islets
same,"Glucose tolerance (oral, 2 g/kg)",SUR-1−/− mice [7]; SUR-1−/− mice during treatment,did not significantly impair; also recorded: did not influence
same,Return to baseline blood glucose levels after oral glucose,"SUR-1−/− mice [7]; SUR-1−/− mice, 120 minute time point",minor delay
same,Insulin/glucose ratio,"SUR-1−/− mice [8]; SUR-1−/− mice, exendin-(9-39) treatment vs WT",normalized
same,Fasting glucagon levels,SUR-1−/− mice [8]; [12],not different
same,Fasting insulin levels,SUR-1−/− mice [8]; [12],not different
same,Peripheral insulin sensitivity (insulin tolerance test),[9],did not impact; also recorded: did not influence
same,Insulin release in response to amino acid ramp stimulation,"SUR-1−/− islets [10]; 100 nM exendin-(9-39), amino acid mixture 0-12 mM",blocked
same,Insulin response to KCl,SUR-1−/− islets [10]; presence vs absence of exendin-(9-39),similar
